Data as given in BigSolDB 2.1.

NC(=O)c1ccccc1
solubility (mole fraction)
Settings | 283.15 K | 288.15 K | 293.15 K | 298.15 K | 303.15 K | 308.15 K | 313.15 K | 318.15 K | 323.15 K
in acetone | 0.0508 | 0.0589 | 0.0703 | 0.0817 | 0.0948 | 0.107 | 0.126 | 0.149 | 0.174
in acetonitrile | 0.0162 | 0.0196 | 0.0231 | 0.0278 | 0.0331 | 0.0385 | 0.046 | 0.0564 | 0.0712
in ethanol | 0.0412 | 0.0479 | 0.0555 | 0.0648 | 0.0758 | 0.087 | 0.101 | 0.12 | 0.143
in ethyl acetate | 0.0206 | 0.0234 | 0.0279 | 0.0334 | 0.0392 | 0.0455 | 0.0518 | 0.0613 | 0.0719
in isobutanol | 0.0268 | 0.0289 | 0.0342 | 0.0416 | 0.0489 | 0.0569 | 0.0665 | 0.0786 | 0.0945
in isopropanol | 0.0253 | 0.0314 | 0.0387 | 0.0473 | 0.0558 | 0.0642 | 0.0767 | 0.0893 | 0.111
in methanol | 0.0599 | 0.0699 | 0.0804 | 0.0917 | 0.105 | 0.121 | 0.141 | 0.164 | 0.189
in methyl acetate | 0.0236 | 0.0277 | 0.0334 | 0.0401 | 0.0476 | 0.0567 | 0.0662 | 0.0769 | 0.0927
in n-butanol | 0.0308 | 0.036 | 0.0425 | 0.0509 | 0.0591 | 0.0682 | 0.0787 | 0.0933 | 0.109
in n-butyl acetate | 0.0176 | 0.0192 | 0.0224 | 0.0264 | 0.0304 | 0.0349 | 0.0402 | 0.0451 | 0.0525
in n-propanol | 0.0329 | 0.0398 | 0.0479 | 0.0561 | 0.0653 | 0.0753 | 0.0891 | 0.103 | 0.126
in water | 0.00099 | 0.00128 | 0.0017 | 0.00212 | 0.00261 | 0.00306 | 0.00363 | 0.00438 | 0.00538
